Measured values: patent US6470226B1 (priority 1997, dated 2002)

Tested on: voltage dependent calcium channels
Type: cell-based, chick

COC(=O)C1=C(C)NC(C)=C([N+](=O)[O-])C1c1ccccc1C(F)(F)F (stereo not drawn) [Bay-k 8644]
effect on voltage dependent calcium channels (maximum current induced by depolarizing voltage steps): stimulates L-type calcium channels
reversibility of effect (washout): reversibly

N=C(N)NC(=O)c1nc(Cl)c(N)nc1N [amiloride]
effect on voltage dependent calcium channels (maximum current induced by depolarizing voltage steps): no effect on calcium ion channels

O=C1NC(=O)C(c2ccccc2)(c2ccccc2)N1 [phenytoin]
effect on voltage dependent calcium channels (maximum current induced by depolarizing voltage steps): no effect on calcium ion channels

w-conotoxin MVIIA
effect on voltage dependent calcium channels (maximum current induced by depolarizing voltage steps): high affinity for N-type calcium channels
reversibility of effect (washout): irreversible
